According to ChEMBL document CHEMBL1201862, “PubChem BioAssay data set” (2004):
Active and inactive are the calls of the source.

Assays:
[1] = Counterscreen for inhibitors of Trypanosoma brucei methionyl tRNA synthetase (MetRS): Luminescence-based cell-based high throughput dose response assay to identify compounds that are cytotoxic to Jurkat human T lymphocyte cells.; type: functional
[2] = target: T1, Methionyl-tRNA synthetase, putative (Trypanosoma brucei brucei, UniProt Q38C91); type: functional, Trypanosoma brucei brucei strain 927/4 GUTat10.1
T1 sequence (Q38C91 whole entry): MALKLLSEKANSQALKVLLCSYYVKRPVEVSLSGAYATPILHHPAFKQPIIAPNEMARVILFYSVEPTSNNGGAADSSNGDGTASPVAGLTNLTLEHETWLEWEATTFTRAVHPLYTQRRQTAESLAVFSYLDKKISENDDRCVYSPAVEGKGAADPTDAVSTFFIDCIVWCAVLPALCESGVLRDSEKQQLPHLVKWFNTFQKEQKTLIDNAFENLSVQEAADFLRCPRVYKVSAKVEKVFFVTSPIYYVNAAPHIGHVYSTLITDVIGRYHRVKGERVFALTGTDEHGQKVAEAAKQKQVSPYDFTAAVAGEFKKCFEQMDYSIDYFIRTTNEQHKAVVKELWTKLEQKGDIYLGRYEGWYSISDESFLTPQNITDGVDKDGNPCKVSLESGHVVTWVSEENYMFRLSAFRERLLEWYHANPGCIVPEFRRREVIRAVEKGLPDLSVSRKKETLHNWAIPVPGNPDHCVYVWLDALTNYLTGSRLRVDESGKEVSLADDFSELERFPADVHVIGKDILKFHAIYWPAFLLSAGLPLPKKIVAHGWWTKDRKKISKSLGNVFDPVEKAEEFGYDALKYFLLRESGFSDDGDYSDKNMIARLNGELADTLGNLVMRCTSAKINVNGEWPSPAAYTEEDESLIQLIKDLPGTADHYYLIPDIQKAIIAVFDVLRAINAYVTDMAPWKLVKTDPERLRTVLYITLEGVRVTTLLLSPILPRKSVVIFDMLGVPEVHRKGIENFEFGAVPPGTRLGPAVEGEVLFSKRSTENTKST

[3] = Late stage counterscreen for inhibitors of Trypanosoma brucei methionyl tRNA synthetase (MetRS): Luminescence-based cell-based high throughput dose response assay to identify compounds that are cytotoxic to Jurkat human T lymphocyte cells.; type: functional
[4] = target: T1, Methionyl-tRNA synthetase, putative; type: functional, Trypanosoma brucei brucei strain 927/4 GUTat10.1; remark: listed apart in the source
[5] = target: Protein Tat (Human immunodeficiency virus type 1 group M subtype B (isolate HXB2)(HIV-1), UniProt P04608); type: functional;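 note: tat binding to TAR RNA read out by fluorescence polarization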
[6] = target: Dual specificity tyrosine-phosphorylation-regulated kinase 1A (Rattus norvegicus, UniProt Q63470); type: biochemical, Homo sapiens
[7] = viability of uninfected HEp-2 cells – cell-based, HTS, cytotoxicity control for RSV inhibitor project, dose response (AID 2410); type: functional; conditions: human respiratory syncytial virus
[8] = cells
[9] = target: T2, Oxysterols receptor LXR-beta (Homo sapiens, UniProt P55055); type: functional, cell-based;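 note: Cell-based luminescence dose-response assay of agonist activity at LXR, run as a confirmatory counterscreen to a daf-12 agonist screen; HEK293 cells with Gal4-LXR fusion and GAL4-driven luciferase reporter; agonist potency from rising luciferase signal of a Gal4-LXR reporter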
T2 sequence (P55055 whole entry): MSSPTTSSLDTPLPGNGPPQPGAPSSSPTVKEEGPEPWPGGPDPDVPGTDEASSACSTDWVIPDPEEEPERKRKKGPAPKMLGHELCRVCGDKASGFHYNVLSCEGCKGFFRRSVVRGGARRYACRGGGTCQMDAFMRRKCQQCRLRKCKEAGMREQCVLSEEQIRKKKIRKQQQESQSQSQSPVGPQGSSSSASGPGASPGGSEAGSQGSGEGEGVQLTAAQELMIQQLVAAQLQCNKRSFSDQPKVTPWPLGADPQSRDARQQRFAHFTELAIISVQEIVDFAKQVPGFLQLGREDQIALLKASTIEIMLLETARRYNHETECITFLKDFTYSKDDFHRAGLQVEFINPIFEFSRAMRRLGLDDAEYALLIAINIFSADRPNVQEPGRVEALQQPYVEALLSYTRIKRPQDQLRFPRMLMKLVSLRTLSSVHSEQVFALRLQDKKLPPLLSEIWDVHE

[10] = toxicity to human hepatoma HepG2 cells – cell-based, cherry-picked samples, cytotoxicity control, dose response (AID 1159577); type: functional
[11] = P. falciparum Dd2 growth inhibitors, dose response, SYBR Green, cherry-picked samples (AID 1159567); type: functional, cell-based
[12] = cells; type: functional, cell-based; conditions: INS-1E
[13] = IC50 of insulin release inhibition, rat insulinoma INS-1E line, 5 mM glucose, cell-based (AID 1117331); type: functional
[14] = rise of 2N DNA cells, HeLa – IC50, dose response (AID 1117349); type: functional, cell-based
[15] = rise of 4N DNA cells, HeLa – IC50, dose response (AID 1117351); type: functional, cell-based

Protein Tat, sequence (P04608 whole entry): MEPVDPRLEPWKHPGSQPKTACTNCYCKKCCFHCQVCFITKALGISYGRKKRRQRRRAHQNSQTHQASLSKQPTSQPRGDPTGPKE

Question: Which results are given for `Cc1nc2ccc(Br)cc2c(O)c1CN1CCCCCC1`?
Answer: IC50 [1]: 83.3 µM (inactive); IC50 [2]: 6.91 µM (active); IC50 [3]: > 83.3 µM (inactive); IC50 [4]: 4.16 µM (active)

Question: For `CCOc1ccc(-c2nnn(CC(=O)c3ccc4c(c3)OCCO4)n2)cc1OCC`, which IC50 [5] is on record?
Answer: The IC50 was > 100 µM (active).

Question: For `Oc1ccc(-c2nccc(-c3cccs3)n2)cc1`, which AC50 [6] is on record?
Answer: The AC50 was 6.5 µM (active).

Question: And the CC50 [7]?
Answer: The CC50 was 27.9 µM (active).

Question: What about the EC50 [8] of the same molecule?
Answer: The EC50 was > 67.6 µM (inactive).

Question: What about the EC50 [9] of the same molecule?
Answer: Its EC50 is > 67.6 µM (inactive).

Question: For `COc1ccc2c3c(n(C)c2c1)[C@H](CO)NCC31CN(Cc2ccc(-c3ccccn3)cc2)C1`, which AC50 [10] is on record?
Answer: The AC50 was 11.6 µM (active).

Question: What about the AC50 [11] of the same molecule?
Answer: Its AC50 is 1.15 µM (active).

Question: With `C[C@@H]1CN([C@@H](C)CO)C(=O)c2c(c3ccccc3n2C)-c2ccccc2CO[C@@H]1CN(C)Cc1cccc(F)c1` as the molecule, how does the AC50 [10] read?
Answer: The AC50 was 23.5 µM (active).

Question: And the AC50 [11]?
Answer: The AC50 was 3.5 µM (active).

Question: For `COc1cc(C(=O)OCCCN2CCCN(CCCOC(=O)c3cc(OC)c(OC)c(OC)c3)CC2)cc(OC)c1OC` [DILAZEP], which IC50 [12] is on record?
Answer: The IC50 was 18 µM (inactive).

Question: And the IC50 [13]?
Answer: The IC50 was 10.2 µM (inactive).

Question: Which IC50 [14] does the source give for `COc1ccc(-c2nc3cc(C4=NNC(=O)CC4C)ccc3[nH]2)cc1` (configuration not stated) [PIMOBENDAN] here?
Answer: The IC50 was > 10 µM (inactive).

Question: What about the IC50 [15] of the same molecule?
Answer: The IC50 was > 10 µM (inactive).
